Legend:
BRAF [1] = molecular target: T1, BRAF (Homo sapiens, UniProt P15056); experiment: Eurofins in vitro kinase inhibition assay; type: biochemical; conditions: 20 µM; Table 3; read-out: % inhib. at 20 µM, BRAF (Eurofins), printed as symbol
T1 construct: purchased DiscoverX (KINOMEscan service); host or cells: E. coli BL21-derived host (T7 phage) or HEK-293
Outline: (§1)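 Reported as mean (SD) % inhibition of control activity at 20 µM compound. PI3K: PIP2-derived PIP3 displacing biotinylated PIP3 from a binding complex, HTRF read-out. EGFR, ErbB2, BRAF: kinase, ATP and substrate analog incubated with compound, phosphorylation quantified.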

ErbB2 [2] = molecular target: T2, ErbB2 (Homo sapiens, UniProt P04626); experiment: Eurofins in vitro kinase inhibition assay; type: biochemical
T2 construct: purchased DiscoverX (KINOMEscan service); host or cells: E. coli BL21-derived host (T7 phage) or HEK-293
Outline: as §1

PI3K [3] = molecular target: T3, PI3K (Homo sapiens, UniProt P42336); experiment: DiscoverX KINOMEscan competition binding assay; design: purchased DiscoverX (KINOMEscan service); host or cells: E. coli BL21-derived host (T7 phage) or HEK-293; conditions: compound 10 µM; lower values = higher affinity; below 35% = significant binding
Outline: (§2)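 Values are % control, where lower signal indicates tighter binding; 10 µM compound was tested. DNA- or phage-tagged kinase was incubated 1 h at room temperature with compound and ligand-coated affinity beads. Kinase retained on the beads was eluted and measured by qPCR.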
Target sequence in this assay (P42336 whole entry): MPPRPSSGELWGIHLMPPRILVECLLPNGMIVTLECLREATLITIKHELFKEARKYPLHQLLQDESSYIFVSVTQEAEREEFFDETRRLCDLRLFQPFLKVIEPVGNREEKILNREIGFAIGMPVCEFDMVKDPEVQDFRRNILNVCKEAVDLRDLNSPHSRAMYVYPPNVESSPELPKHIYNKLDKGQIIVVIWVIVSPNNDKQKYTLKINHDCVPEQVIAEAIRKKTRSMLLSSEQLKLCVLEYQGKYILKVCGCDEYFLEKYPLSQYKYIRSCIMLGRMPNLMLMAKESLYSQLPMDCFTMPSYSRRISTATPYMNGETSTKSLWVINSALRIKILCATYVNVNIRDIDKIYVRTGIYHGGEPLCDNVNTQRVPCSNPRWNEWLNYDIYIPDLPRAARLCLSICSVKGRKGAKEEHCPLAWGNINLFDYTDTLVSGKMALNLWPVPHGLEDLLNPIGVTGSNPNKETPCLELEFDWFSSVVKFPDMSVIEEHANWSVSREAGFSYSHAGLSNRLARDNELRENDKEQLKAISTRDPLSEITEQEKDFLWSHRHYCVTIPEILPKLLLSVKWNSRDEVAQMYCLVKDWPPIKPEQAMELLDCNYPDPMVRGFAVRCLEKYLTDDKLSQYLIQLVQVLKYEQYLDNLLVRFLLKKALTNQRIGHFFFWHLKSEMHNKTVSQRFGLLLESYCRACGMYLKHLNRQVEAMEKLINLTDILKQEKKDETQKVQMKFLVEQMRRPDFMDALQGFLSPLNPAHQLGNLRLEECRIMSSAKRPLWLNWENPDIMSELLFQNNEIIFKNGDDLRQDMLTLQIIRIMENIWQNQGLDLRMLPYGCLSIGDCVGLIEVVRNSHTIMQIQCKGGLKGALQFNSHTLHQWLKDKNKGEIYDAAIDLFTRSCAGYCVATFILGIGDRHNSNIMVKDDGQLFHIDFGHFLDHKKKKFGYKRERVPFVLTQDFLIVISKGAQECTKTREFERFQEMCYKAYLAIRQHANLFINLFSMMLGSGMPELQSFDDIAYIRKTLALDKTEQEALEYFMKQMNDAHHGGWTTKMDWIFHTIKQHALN

PI3K [4] = molecular target: T3, PI3K; experiment: Eurofins in vitro kinase inhibition assay (HTRF, PIP3 displacement); type: biochemical; design: purchased Eurofins Cerep (contract assay); conditions: compound 20 µM; mean (SD); above 50% significant, 25-50% weak
Outline: as §1
Target sequence in this assay (P42336 whole entry): as above
Target sequence in this assay (P27986 whole entry partner): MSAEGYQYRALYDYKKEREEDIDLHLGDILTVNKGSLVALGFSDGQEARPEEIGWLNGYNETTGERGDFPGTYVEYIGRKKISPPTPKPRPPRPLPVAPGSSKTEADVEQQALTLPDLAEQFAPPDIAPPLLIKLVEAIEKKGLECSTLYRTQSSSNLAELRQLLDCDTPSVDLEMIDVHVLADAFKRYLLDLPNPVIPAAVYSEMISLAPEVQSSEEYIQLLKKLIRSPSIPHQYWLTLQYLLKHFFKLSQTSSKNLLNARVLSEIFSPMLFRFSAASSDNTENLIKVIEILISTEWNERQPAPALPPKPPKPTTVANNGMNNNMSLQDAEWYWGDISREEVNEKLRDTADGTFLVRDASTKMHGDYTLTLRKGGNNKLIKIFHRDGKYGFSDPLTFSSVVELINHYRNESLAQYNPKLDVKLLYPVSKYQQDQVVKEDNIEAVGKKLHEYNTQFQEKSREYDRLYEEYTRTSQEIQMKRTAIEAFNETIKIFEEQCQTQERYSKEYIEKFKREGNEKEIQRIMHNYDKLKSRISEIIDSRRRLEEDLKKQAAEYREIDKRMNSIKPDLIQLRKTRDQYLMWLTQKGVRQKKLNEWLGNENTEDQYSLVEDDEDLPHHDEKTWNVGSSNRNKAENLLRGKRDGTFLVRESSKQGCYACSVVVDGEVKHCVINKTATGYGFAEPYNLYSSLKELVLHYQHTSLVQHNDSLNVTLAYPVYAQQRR

BRAF [5] = molecular target: T1, BRAF; experiment: DiscoverX KINOMEscan competition binding assay; conditions: 10 µM; Table 3; read-out: % ctrl. activity at 10 µM, BRAF (DiscoverX), printed as symbol
Outline: as §2

EGFR = molecular target: T4, EGFR (Homo sapiens, UniProt P00533); experiment: DiscoverX KINOMEscan competition binding assay; conditions: compound 10 µM; lower values = higher affinity; below 35% = significant binding
T4 construct: purchased DiscoverX (KINOMEscan service); host or cells: E. coli BL21-derived host (T7 phage) or HEK-293
Outline: as §2

VEGFR2 = molecular target: T5, VEGFR2 (Homo sapiens, UniProt P35968); experiment: DiscoverX KINOMEscan competition binding assay; conditions: compound 10 µM; lower values = higher affinity; below 35% = significant binding
T5 construct: purchased DiscoverX (KINOMEscan service); host or cells: E. coli BL21-derived host (T7 phage) or HEK-293
Outline: as §2

ErbB2 [6] = molecular target: T2, ErbB2; experiment: DiscoverX KINOMEscan competition binding assay; conditions: compound 10 µM; lower values = higher affinity; below 35% = significant binding
Outline: as §2

T2 sequence (P04626 23-1255): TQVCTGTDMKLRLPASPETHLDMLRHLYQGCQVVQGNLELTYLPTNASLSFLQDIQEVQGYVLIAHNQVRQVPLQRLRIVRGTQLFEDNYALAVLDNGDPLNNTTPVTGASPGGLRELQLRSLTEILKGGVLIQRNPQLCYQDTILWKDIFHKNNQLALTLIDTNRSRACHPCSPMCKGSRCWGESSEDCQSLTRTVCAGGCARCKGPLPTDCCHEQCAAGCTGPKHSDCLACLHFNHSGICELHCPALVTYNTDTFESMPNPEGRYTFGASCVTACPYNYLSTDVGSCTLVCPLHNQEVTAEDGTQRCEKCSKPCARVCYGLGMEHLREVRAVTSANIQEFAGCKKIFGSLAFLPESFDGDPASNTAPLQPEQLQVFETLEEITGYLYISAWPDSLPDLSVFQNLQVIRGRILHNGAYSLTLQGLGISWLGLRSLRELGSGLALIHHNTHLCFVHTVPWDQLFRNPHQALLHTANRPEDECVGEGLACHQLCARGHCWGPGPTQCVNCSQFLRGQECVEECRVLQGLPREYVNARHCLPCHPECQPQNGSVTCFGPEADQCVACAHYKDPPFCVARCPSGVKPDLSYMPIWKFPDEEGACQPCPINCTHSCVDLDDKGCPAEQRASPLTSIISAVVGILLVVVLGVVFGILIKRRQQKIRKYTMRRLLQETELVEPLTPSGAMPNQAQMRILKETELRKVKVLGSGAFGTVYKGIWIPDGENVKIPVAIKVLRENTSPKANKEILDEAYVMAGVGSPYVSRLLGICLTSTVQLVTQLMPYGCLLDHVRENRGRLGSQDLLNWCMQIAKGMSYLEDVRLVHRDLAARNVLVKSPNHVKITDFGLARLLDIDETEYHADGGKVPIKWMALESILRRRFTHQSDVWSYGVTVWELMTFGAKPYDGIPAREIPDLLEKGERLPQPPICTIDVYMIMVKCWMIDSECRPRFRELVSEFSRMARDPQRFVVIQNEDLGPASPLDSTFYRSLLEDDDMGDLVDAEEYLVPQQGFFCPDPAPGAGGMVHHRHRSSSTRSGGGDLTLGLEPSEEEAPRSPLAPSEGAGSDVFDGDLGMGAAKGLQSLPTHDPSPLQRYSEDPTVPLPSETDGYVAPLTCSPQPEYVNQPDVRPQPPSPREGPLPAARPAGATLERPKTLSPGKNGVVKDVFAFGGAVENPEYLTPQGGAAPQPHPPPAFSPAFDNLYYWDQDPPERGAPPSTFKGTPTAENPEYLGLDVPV
T1 sequence (P15056 whole entry): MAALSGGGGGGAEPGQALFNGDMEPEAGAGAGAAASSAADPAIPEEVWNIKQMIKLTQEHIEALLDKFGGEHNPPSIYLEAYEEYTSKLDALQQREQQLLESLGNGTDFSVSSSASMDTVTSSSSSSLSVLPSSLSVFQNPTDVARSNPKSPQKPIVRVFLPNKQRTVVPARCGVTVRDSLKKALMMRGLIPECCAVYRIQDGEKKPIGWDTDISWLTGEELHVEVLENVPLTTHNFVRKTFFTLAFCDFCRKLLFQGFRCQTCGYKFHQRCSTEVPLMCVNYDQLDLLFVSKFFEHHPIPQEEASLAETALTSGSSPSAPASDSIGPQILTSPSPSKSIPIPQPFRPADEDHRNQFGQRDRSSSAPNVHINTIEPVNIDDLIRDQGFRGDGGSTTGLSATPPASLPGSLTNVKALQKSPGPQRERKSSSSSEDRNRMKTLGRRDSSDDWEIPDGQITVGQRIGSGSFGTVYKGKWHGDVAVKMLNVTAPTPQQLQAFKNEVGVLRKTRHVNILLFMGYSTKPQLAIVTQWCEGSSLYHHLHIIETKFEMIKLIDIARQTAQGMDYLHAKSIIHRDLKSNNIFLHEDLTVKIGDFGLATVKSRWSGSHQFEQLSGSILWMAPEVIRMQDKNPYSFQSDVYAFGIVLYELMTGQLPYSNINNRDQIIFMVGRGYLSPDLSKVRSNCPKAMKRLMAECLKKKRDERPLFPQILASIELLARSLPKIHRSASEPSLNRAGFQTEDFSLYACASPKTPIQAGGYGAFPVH
T4 sequence (P00533 25-1210): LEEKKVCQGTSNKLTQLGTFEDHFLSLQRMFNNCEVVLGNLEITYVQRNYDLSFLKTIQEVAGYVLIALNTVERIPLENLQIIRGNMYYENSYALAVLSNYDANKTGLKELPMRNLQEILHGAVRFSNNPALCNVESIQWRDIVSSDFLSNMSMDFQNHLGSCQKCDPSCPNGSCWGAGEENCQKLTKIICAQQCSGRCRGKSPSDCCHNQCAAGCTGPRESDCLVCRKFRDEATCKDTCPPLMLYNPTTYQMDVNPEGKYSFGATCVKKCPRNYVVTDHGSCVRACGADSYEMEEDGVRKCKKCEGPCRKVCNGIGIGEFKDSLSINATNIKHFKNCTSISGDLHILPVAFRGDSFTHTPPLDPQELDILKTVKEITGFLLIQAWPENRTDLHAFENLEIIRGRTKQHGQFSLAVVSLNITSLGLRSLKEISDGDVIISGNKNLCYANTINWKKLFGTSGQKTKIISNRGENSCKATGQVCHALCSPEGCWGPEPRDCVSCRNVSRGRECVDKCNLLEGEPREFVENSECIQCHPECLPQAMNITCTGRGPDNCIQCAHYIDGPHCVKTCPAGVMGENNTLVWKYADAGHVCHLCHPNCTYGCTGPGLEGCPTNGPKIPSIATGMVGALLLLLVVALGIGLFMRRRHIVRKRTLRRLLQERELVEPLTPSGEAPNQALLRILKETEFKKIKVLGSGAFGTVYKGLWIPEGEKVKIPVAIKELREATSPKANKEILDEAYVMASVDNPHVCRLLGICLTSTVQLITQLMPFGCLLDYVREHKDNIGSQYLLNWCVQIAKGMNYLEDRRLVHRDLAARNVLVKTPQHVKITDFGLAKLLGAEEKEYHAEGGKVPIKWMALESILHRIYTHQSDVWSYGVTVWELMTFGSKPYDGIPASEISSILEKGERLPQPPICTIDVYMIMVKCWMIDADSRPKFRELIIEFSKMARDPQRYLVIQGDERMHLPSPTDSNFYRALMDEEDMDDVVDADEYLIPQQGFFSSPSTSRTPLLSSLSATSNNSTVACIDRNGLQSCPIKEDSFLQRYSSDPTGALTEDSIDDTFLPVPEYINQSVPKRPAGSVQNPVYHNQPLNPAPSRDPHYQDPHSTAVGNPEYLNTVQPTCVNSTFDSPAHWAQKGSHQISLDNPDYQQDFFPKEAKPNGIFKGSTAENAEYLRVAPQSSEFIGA

## COC(=O)Cc1ccc(Oc2ncnc3sc4c(c23)CC[C@@H](C)C4)cc1 (racemic) [DS39984]
BRAF [1]
  inhibition at 20 µM: < 50%
ErbB2 [2]; 20 µM, Table 3, read-out: % inhib. at 20 µM, ErbB2 (Eurofins), printed as symbol
  inhibition at 20 µM: < 50%
ErbB2 [2]; compound 20 µM, mean (SD), above 50% significant, 25-50% weak
  % inhibition of control activity, ErbB2 (Eurofins): -1.3 (1.8) % inhibition
PI3K [3]
  % control, PI3K (DiscoverX): 100 % control
PI3K [4]
  % inhibition of control activity, PI3K (Eurofins): -6.7 (2.3) % inhibition
BRAF [5]
  remaining binding at 10 µM: ≥ 99%
EGFR
  % control, EGFR (DiscoverX): 17 % control
VEGFR2
  % control, VEGFR2 (DiscoverX): 99 % control
ErbB2 [6]
  % control, ErbB2 (DiscoverX): 21 % control
